{
  "source": "patent US20140288077A1",
  "about": "“SUBSTITUTED 4-PHENOXYPHENOL ANALOGS AS MODULATORS OF PROLIFERATING CELL NUCLEAR ANTIGEN ACTIVITY” (ST. JUDE CHILDREN'S RESEARCH HOSPITAL, priority 2011, published 2014)",
  "key": {"Polδ3": {"test_system": "Polδ3", "experiment": "Immunoblotting for Polδ3 in whole cell lysates", "format": "cell-based", "conditions": "U2OS cells, FIG. 24B", "method": "The cells treated as indicated were washed twice with ice-cold PBS, collected in a spin tube, and lysed with radioimmune precipitation assay buffer supplemented with Halt protease inhibitor mixture and Halt phosphatase inhibitor mixture (Thermo Scientific) using approximately twice the volume of the cell pellet on ice for 0.5 h. Protein concentration was determined by a BCA assay (Thermo Scientific) according to the manufacturer's recommendation. Normalized amounts of samples were loaded on SDS-PAGE as indicated and electrotransferred to a PVDF membrane. The membrane was blocked with SuperBlock buffer (Thermo Scientific) and incubated with the indicated primary antibodies in SuperBlock at 4° C. overnight, rinsed with TBS, 0.05% Tween 20 three times for 10 min, incubated with the corresponding secondary IgG-HRP conjugate in SuperBlock at room temperature for 1 h, and rinsed with TBS, 0.05% Tween 20 for 15 min. Proteins probed on the membrane were visualized by chemiluminescence using WestPico reagent (Thermo Scientific) and developed on BioMax MR film (Eastman Kodak Co.)."}, "U2OS cells [1]": {"test_system": "U2OS cells", "experiment": "DNA replication assay (BrdU incorporation)", "format": "cell-based", "conditions": "titration of compound, 24 h, FIG. 25A-C", "method": "DNA replication in U2OS and/or HeLa cells were analyzed by the rates of bromodeoxyuridine (BrdU) incorporation by a method reported previously (Taddei, A., et al. (1999) J. Cell Biol. 147, 1153-1166.). For immunofluorescence, cells were propagated at a subconfluent density onto a coverslip in a 6-well culture plate the day before the assay. […] During the last 15 min in the incubation period, BrdU was added at a concentration of 10 μM. Cells were washed with PBS and fixed with 4% paraformaldehyde in PBS for 15 min at room temperature. After permeabilization with 0.2% Triton X-100 in PBS for 15 min, cells were treated with 4N hydrochloric acid for 10 min and extensively rinsed with PBS. After blocking cells with 3% FBS in PBS for 20 min, anti-BrdU monoclonal antibody (1 μg/ml; clone 44, BD Pharmingen) was added to the cells and incubated at room temperature for 1 h. Cells were rinsed with PBS three times for 5 min each. Antimouse IgG conjugated with Alexa Fluor 555 (Invitrogen) was added and incubated at room temperature for 30 min. […] Fluorescence microscopy was done on an E800 microscope (Nikon) with a DXM1120 digital camera (Nikon). […] For quantitative analyses, BrdU incorporation was measured with the APC BrdU Flow Kit (BD Pharmingen) following the manufacturer's instructions. […] The populations of BrdU-positive cells (a) and mean BrdU intensity in S-phase cells (b) were recorded. […]"}, "cells [2]": {"test_system": "cells", "experiment": "Cell cycle analysis by flow cytometry (PI)", "format": "cell-based", "conditions": "20 μM, 24 h, FIG. 25E"}, "cells [3]": {"test_system": "cells", "experiment": "Apoptosis analysis by flow cytometry (Annexin-V and PI)", "format": "cell-based", "design": "dose or concentration left out as unconfirmed", "conditions": "5 days, FIG. 25G"}, "HeLa cells": {"test_system": "HeLa cells", "experiment": "Immunostaining of phospho-Chk1 and γH2AX (DNA replication stress)", "format": "cell-based", "conditions": "4 h, FIG. 26A"}, "U2OS cells [4]": {"test_system": "U2OS cells", "experiment": "Chromatin immunostaining of phospho(Ser33)RPA32", "format": "cell-based", "conditions": "40 μM, 24 h, FIG. 26B", "method": "The cells were fixed with 4% paraformaldehyde in PBS for 20 min at room temperature, rinsed three times with PBS for 5 min each, permeabilized with ice-cold methanol for 10 min at −20° C., and rinsed once with PBS for 5 min. The specimens were blocked with PBS containing 5% FBS and 0.03% Triton X-100 for 60 min, applied anti-PCNA antibody (1:3200) and anti-Polδ3 antibody (2.9 μg/ml) or anti-phospho(Ser^33)RPA32 antibody (4.0 μg/ml) in antibody buffer (PBS containing 1% FBS and 0.03% Triton X-100), incubated overnight in a humid chamber at 4° C., and rinsed with PBS three times for 5 min each at room temperature. The specimens were incubated with Alexa Fluor 555-conjugated goat anti-mouse IgG (Invitrogen) antibody (1:500) in the antibody buffer for 2 h in a humidified chamber at room temperature the dark, rinsed once with PBS for 5 min, incubated with Alexa Fluor 488-conjugated goat anti-rabbit IgG (Invitrogen) antibody (1:500) in the antibody buffer for 2 h in a humidified chamber at room temperature in the dark, and rinsed three times with PBS for 5 min. The coverslips were mounted VectaShield containing DAPI at 1 μg/ml (Vector Laboratories). Immunofluorescence imaging for chromatin was performed on a ClSi microscope (Nikon) with a Cascade 512B photomultiplier (Photometrics). Images were processed using EZC1 (Nikon) and Photoshop (Adobe) software. […]"}, "XP2OS(SV40) cells": {"test_system": "XP2OS(SV40) cells", "experiment": "TLS assay in mammalian cultured cells with cisplatin-cross-linked Pt-GTG plasmid", "format": "cell-based", "conditions": "5 μM of T2AA", "method": "The cisplatin-modified plasmid was constructed, and the TLS assay was performed as previously described (14) with some modifications. Briefly, two oligonucleotides, [NT] and [NT], were annealed and inserted between the sites of EcoRV and EcoRI in pUCS[…]. The resultant plasmid was designated as pUCS[…]+ BglII. […] This oligonucleotide has the cross-link at the underlined site of [NT]. An unmodified 13-mer oligonucleotide was used for the construction of control plasmid. These oligonucleotides were purified with HPLC and PAGE. […] The gapped duplex plasmid was incubated with a 2-fold molar excess of the purified 13-mer oligonucleotide, which is complementary to the gap sequence except for a bulge in the middle in the presence of ATP (1 mM) and T4 DNA ligase (New England Biolabs, Ipswich, MA) at 16° C. for 6 min. The covalently closed circle plasmid was purified with equilibrium centrifugation on a CsCl gradient. The plasmids with and without the cisplatin adduct are hereafter referred to as Pt-GTG and Mock-GTG, respectively. […] The plasmids were extracted from the cells by using the QIAprep spin miniprep kit (Qiagen), digested with the restriction endonuclease DpnI (New England Biolabs) to remove the unreplicated plasmids, and introduced into Escherichia coli strain DH5α. The E. coli was plated onto LB agar plates containing ampicillin, X-gal, and isopropyl-β-D-thioga-lactopyranoside. […] Therefore, TLS frequency (%) was defined as (number of blue colonies/number of total colonies)×100."}, "U2OS cells [5]": {"test_system": "U2OS cells", "experiment": "γH2AX staining by flow cytometry, T2AA and cisplatin", "conditions": "18 h, FIG. 28A", "experimental": "For γH2AX staining, cells were cultured at 4×10^5 cells/well of 12-well plates in 1 ml of medium, treated with drugs as indicated, trypsin-lifted and stained by using the FlowCellect H2A.X DNA Damage kit (FCCH025142, Millipore) according to the manufacturer's recommendations. All samples were filtered through 40-μm nylon mesh prior to running flow cytometry.\nNT, no treatment. Error bars, S.D."}, "U2OS cells [6]": {"test_system": "U2OS cells", "experiment": "Growth of cells after treatment with cisplatin and T2AA and release (Alamar Blue)", "conditions": "18 h, then 3 days drug-free, FIG. 28B", "experimental": "The cells were treated with drugs as indicated in a black (transparent flat bottom) 384-well or 96-well plate. Cellular viability was determined by using Alamar Blue reagent (Invitrogen) on an EnVision plate reader according to the manufacturer's recommendations and normalized with signal from wells of DMSO treatment=100% and of no cells=0%.\nViability of the cells was measured by Alamar Blue reagent, and signals were normalized with those of no cell well (0%) and cells with no drugs (100%). NT, no treatment. Error bars, S.D."}},
  "note": "Values joined by “and” are separate entries in the source; they are usually repeats but may differ in a detail not shown here. Identical values can stand only once.",
  "data": [
    {"compound": "N[C@H](CO)Cc1cc(I)c(Oc2ccc(O)cc2)c(I)c1", "note": "[Compound T2AA]", "values": [
      {"measurement": "expression of Polδ3 protein in whole cell lysate", "setting": "Polδ3", "result": "not reduced"},
      {"measurement": "BrdU incorporation", "setting": "U2OS cells [1]", "result": "inhibited the BrdU incorporation significantly in a dose-dependent manner"},
      {"measurement": "cell cycle", "setting": "cells [2]", "result": "arrested cells at S-phase"},
      {"measurement": "apoptosis (Annexin-V / PI)", "setting": "cells [3]", "result": "increased cellular populations in early apoptosis but not necrosis"},
      {"measurement": "phosphorylation of Chk1 and H2AX", "setting": "HeLa cells", "result": "phosphorylated"},
      {"measurement": "immunofluorescence of phospho-RPA32 in nuclei", "setting": "U2OS cells [4]", "result": "increased"},
      {"measurement": "Mock GTG plasmid Raito (%) blue/total, Total/Average", "setting": "XP2OS(SV40) cells", "result": "36.9 (100) %"},
      {"measurement": "Pt-GTG plasmid Raito (%) blue/total, Total/Average", "setting": "XP2OS(SV40) cells", "result": "5.3 (14.2) %"},
      {"measurement": "Mock GTG plasmid Raito (%) blue/total", "setting": "XP2OS(SV40) cells; single experiments", "result": "36.0% and 34.5% and 41.0% and 37.9% and 38.1% and 34.2%"},
      {"measurement": "γH2AX level (DNA damage response)", "setting": "U2OS cells [5]; T2AA and cisplatin together", "result": "further increased much higher than the level combined from each single treatment"},
      {"measurement": "γH2AX level (DNA damage response)", "setting": "U2OS cells [5]; single agent", "result": "induced γH2AX only a little"},
      {"measurement": "reduction of U2OS cell growth", "setting": "U2OS cells [6]; 10 μM T2AA alone", "result": "less than 10%"},
      {"measurement": "U2OS cell growth", "setting": "U2OS cells [6]; cisplatin and T2AA together", "result": "significantly reduced"}
    ]}
  ]
}
